Measured values reported in patent US8686000B2, “Herbicidally active ketosultams and diketopyridines” (Bayer Cropscience AG, priority 2010, dated 2014).

What follows are compounds tested on corn (assay: Pre-emergence compatibility with crop plants). Settings: 320 grams per hectare, scored visually after 3 to 4 weeks.
Assay type: in vivo
Description: (§1) Pre-emergence Herbicidal Action against Weed Plants and Compatibility with Crop Plants
(§2) Seeds or rhizome sections of mono- and dicotyledonous weed plants are set out in pots of 9 to 13 cm in diameter in sandy loam soil, and are covered with soil. The herbicides, formulated as emulsifiable concentrates or dusting products, are applied to the surface of the covering earth in different doses in the form of aqueous dispersions or suspensions or emulsions, at a water application rate of 300 to 800 I/ha (converted). The pots are then maintained under glass under optimum conditions for the further cultivation of the plants. After the trial plants have stood for 3 to 4 weeks under glass under optimum growth conditions, the effect of the inventive compounds is scored visually.

Row | SMILES | damage in corn
1 | Cc1cc(Br)cc(C)c1-c1c(O)c2scnc2n(CC(F)F)c1=O [I-a-97] | do not exhibit any damage
2 | Cc1c(Br)ccc(Cl)c1-c1c(O)c2scnc2n(CC(F)F)c1=O [I-a-94] | do not exhibit any damage
3 | Cc1ccc(Cl)c(-c2c(O)c3scnc3n(CC(F)F)c2=O)c1Cl [I-a-89] | do not exhibit any damage
4 | CCc1cc(Cl)cc(Br)c1-c1c(O)c2scnc2n(CC(F)F)c1=O [I-a-36] | do not exhibit any damage
5 | C=CCn1c(=O)c(-c2c(Br)cc(Cl)cc2CC)c(OC(=O)C(C)(C)C)c2scnc21 [I-b-22] | do not exhibit any damage
6 | C#CCn1c(=O)c(-c2c(Cl)cccc2Cl)c(O)c2scnc21 [I-a-44] | do not exhibit any damage
7 | CCOC(=O)Oc1c(-c2c(C)cc(Br)cc2CC)c(=O)n(C)c2ncsc12 [I-c-38] | do not exhibit any damage
8 | O=c1c(-c2c(Cl)ccc(Br)c2Cl)c(O)c2scnc2n1CC(F)F [I-a-75] | do not exhibit any damage

The compounds below were run on oilseed rape (assay: Pre-emergence compatibility with crop plants). Settings: 320 grams per hectare, scored visually after 3 to 4 weeks.
Assay type: in vivo
Description: as §1, §2

Row | SMILES | damage in oilseed rape
9 | C=CCn1c(=O)c(-c2c(Br)cc(Cl)cc2CC)c(O)c2cn(C)nc21 [I-a-28] | do not exhibit any damage
10 | CCc1cc(Cl)cc(Br)c1-c1c(O)c2cn(C)nc2n(CC(F)F)c1=O [I-a-43] | do not exhibit any damage
11 | C=CCn1c(=O)c(-c2c(C)cc(C)cc2C)c(O)c2scnc21 [I-a-2, 4-allyl-7-hydroxy-6-mesityl[1,3]thiazolo[4,5-b]pyridin-5(4H)-one] | do not exhibit any damage

Each compound was assayed on corn (assay: Post-emergence compatibility with crop plants). Settings: 320 grams per hectare, scored visually after 3 to 4 weeks.
Assay type: in vivo
Protocol: Post-emergence herbicidal action against weed plants and compatibility with crop plants Seeds of monocotyledonous and dicotyledonous weed plants are set out in cardboard pots in sandy loam soil, covered with soil, and cultivated under glass under good growth conditions. Two to three weeks after sowing, the trial plants are treated at the three-leaf stage. The inventive compounds, formulated as wettable powders or as emulsifiable concentrates, are sprayed onto the surface of the green parts of the plants, at a water application rate of 600 to 800 I/ha (converted). After the trial plants have stood for 3 to 4 weeks under glass under optimum growth conditions, the effect of the inventive compounds is scored visually.

Row | SMILES | damage in corn
12 | C#CCOc1c(-c2ccccc2C(F)(F)F)c(=O)n(CC#C)c2ncsc12 [I-h-11] | do not exhibit any damage
13 | CCc1cc(Cl)cc(Br)c1-c1c(O)c2scnc2n(CC(F)F)c1=O [I-a-36] | do not exhibit any damage
14 | Cc1c(Br)ccc(Cl)c1-c1c(O)c2scnc2n(C)c1=O [I-a-93] | do not exhibit any damage
15 | O=c1c(-c2c(Cl)ccc(C3CC3)c2Cl)c(O)c2scnc2n1CC(F)F [I-a-83] | do not exhibit any damage
16 | C[N+](C)(C)C.Cc1cc(C)c(-c2c([O-])c3scnc3n(CC(F)F)c2=O)c(C)c1 [I-g-5] | do not exhibit any damage
17 | C#CCn1c(=O)c(-c2c(Cl)cccc2Cl)c(O)c2scnc21 [I-a-44] | do not exhibit any damage
18 | Cc1ccc(Cl)c(-c2c(O)c3scnc3n(CC(F)(F)F)c2=O)c1Cl [I-a-86] | do not exhibit any damage
19 | Cc1cc(C)c(-c2c(O)c3scnc3n(CC(F)F)c2=O)c(C)c1 [I-a-37] | do not exhibit any damage
